Assay results as given in paper PMC4774911, “Biochemical Screening of Five Protein Kinases from Plasmodium falciparum against 14,000 Cell-Active Compounds” (PLoS ONE, 2016).
Where “and” joins values, the source holds several entries; their conditions need not be identical. Identical values can stand only once.

What was measured:
Assay in all cases: biochemical
Design in all cases: endogenous in cells; host or cells: K562 cell extract; species or system K562 (extract); replicate k of n = 2 (each experiment ID is one independent experiment; two experiment IDs per compound)
Conditions in all cases: read-out: KDapp
[1] = target: PIK3C3 (Homo sapiens, UniProt Q8NEB9)
Chain of PIK3C3 (Q8NEB9 whole entry): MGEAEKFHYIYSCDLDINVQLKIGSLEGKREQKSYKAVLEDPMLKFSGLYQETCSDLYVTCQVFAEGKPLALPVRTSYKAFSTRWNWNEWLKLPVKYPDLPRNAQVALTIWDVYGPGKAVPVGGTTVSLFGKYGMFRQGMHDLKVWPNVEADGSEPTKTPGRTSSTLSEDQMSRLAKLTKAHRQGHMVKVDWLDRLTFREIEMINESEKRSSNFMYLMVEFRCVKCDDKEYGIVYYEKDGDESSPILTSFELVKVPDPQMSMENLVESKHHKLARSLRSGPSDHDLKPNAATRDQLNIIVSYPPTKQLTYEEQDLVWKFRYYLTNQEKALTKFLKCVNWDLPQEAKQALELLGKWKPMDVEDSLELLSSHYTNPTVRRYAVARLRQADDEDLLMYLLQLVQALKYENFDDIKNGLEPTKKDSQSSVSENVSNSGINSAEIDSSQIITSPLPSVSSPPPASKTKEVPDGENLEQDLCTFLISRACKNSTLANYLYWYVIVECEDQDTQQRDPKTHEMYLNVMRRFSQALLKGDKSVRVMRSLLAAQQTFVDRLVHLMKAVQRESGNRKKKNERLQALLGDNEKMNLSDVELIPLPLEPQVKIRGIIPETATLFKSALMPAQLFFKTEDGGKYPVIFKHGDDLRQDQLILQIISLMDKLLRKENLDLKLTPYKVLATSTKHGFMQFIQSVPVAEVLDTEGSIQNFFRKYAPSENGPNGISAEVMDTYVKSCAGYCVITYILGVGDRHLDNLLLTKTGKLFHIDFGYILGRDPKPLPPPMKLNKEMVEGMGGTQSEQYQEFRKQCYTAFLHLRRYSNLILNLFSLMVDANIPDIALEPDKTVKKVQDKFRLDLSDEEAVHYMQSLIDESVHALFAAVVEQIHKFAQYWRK

[2] = target: T1, PLK4 (Homo sapiens, UniProt O00444)
T1 sequence (O00444 1-970): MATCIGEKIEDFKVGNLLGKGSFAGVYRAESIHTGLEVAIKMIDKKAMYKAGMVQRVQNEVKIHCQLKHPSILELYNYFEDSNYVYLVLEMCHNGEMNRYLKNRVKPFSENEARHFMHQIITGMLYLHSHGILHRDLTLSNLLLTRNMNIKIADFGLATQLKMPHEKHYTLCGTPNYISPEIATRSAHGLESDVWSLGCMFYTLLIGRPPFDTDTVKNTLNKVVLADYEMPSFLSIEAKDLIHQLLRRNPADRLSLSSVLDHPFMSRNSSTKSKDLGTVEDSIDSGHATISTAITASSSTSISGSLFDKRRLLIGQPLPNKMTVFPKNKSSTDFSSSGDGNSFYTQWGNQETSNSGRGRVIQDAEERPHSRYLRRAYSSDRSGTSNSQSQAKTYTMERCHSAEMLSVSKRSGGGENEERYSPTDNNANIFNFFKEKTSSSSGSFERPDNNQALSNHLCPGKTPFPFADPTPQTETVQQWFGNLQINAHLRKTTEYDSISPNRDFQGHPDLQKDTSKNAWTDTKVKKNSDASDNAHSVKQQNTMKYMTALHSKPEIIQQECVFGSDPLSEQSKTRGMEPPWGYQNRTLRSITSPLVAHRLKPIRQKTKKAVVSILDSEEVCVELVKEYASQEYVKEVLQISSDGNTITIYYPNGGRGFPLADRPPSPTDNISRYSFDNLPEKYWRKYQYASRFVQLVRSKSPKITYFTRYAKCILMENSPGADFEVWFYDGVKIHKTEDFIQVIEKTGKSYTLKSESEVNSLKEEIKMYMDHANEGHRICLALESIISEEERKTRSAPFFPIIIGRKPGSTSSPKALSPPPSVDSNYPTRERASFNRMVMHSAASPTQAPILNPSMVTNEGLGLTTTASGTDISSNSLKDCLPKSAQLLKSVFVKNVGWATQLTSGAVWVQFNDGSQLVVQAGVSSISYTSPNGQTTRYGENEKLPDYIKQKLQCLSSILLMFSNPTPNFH

[3] = target: T2, MAPKAPK5 (Homo sapiens, UniProt Q8IW41)
T2 sequence (Q8IW41 1-473): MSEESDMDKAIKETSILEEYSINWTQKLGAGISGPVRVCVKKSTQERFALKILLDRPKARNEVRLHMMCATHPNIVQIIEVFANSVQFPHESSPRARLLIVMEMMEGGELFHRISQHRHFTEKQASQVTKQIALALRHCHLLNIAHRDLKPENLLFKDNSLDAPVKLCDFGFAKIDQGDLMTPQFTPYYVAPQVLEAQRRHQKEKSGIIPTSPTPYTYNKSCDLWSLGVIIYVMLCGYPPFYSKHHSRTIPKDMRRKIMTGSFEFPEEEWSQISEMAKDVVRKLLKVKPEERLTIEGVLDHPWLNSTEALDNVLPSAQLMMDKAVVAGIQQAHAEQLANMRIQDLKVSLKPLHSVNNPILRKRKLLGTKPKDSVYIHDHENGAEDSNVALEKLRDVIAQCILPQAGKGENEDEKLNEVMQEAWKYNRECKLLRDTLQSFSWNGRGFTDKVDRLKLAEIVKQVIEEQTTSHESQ

[4] = target: T3, MARK4 (Homo sapiens, UniProt Q96L34)
T3 sequence (Q96L34 1-752): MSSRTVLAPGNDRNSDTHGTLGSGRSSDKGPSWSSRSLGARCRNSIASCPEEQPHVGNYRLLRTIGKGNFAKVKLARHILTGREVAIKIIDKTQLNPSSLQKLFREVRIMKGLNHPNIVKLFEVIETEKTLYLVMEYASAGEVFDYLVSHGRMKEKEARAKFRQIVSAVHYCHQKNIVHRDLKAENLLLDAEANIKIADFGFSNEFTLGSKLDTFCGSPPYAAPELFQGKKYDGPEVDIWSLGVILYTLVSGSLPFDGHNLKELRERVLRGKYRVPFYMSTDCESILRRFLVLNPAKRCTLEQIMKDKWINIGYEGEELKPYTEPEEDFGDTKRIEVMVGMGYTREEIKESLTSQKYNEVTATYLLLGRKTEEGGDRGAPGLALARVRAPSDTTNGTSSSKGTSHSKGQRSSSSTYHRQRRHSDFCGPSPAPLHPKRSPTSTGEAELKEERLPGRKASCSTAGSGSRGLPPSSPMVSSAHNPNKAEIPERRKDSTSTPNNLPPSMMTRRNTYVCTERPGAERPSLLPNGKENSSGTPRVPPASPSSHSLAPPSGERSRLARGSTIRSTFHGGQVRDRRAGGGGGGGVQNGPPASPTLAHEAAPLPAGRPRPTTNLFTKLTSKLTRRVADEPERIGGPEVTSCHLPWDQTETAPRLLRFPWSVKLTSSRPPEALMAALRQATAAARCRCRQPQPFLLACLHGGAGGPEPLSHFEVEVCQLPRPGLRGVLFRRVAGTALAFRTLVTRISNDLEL

| SMILES | Kd [1] [nM] | Kd [2] | Kd [3] [nM] | Kd [4] |
| --- | --- | --- | --- | --- |
| CN1CCN(c2ccc(Nc3ncc(C#N)c(Nc4ccccc4C(N)=O)n3)cc2)CC1.Cl [TCMDC-134116] | 957 | 53.9 nM and 69.2 nM | – | – |
| CN(C)CC(O)COc1ccc(Nc2ncc([N+](=O)[O-])c(Nc3ccccc3O)n2)cc1.O=C(O)C(F)(F)F (stereo not shown) [TCMDC-141399] | – | – | 292 | 6160 nM and 3900 nM |
